Assay results: patent US20230076310A1, “COMPOSITION USING NOVEL LACTOBACILLUS PLANTARUM KC3 STRAIN FOR PREVENTION OR TREATMENT OF IMMUNE IMPAIRMENT, RESPIRATORY INFLAMMATORY DISEASE, ALLERGY, AND ASTHMA AND USE THEREOF” (KT&G CORPORATION, priority 2020, published 2023)
Bridge positions count the residues as written; N and C are the ends. Square brackets hold non-standard residues; d marks the D form. Peptide text beside a SMILES is read from it. * marks the point of attachment. Ileψ(thiazoline)Cys = CC[C@H](C)[C@H](N)C1=N[C@H](C(=O)*)CS1; dOrn = NCCC[C@@H](N)C(=O)O

Tests used:
[1] = tested on: Lactobacillus plantarum KC3; assay: Antibiotics resistance experiment (antibiotic strips on LSM solid medium); format: cell-based; conditions: antibiotic strip on KC3 lawn, 37° C. for 24 hours
Protocol: In order to confirm antibiotics resistance level of the new lactic acid bacteria from the of the Lactobacillus plantarum KC3 the present disclosure, an experiment was performed as follows by applying the method described in the document ([1] Mathur, S. and R. Singh, Antibiotic resistance in food lactic acid bacteria—A review. Int. J. Food Microbiol 2005 105: 281-295); [2] European Food Safety Authority, Guidance on the assessment of bacterial susceptibility to antimicrobials of human and veterinary importance: EFSA Panel on Additives and Products or Substances used in Animal Feed (FEEDAP). The EFSA Journal 2012 2740:1-10. doi:10.2903/j.efsa.2012.2740).
To measure the antibiotics resistance level of the strain, an MIC test was carried out. Lactic acid bacteria that were inoculated into an MRS medium (DF0881-17-5, Difco) and cultured at 37° C. for 18 hours were spread on an LSM solid medium (90% iso-sensitest broth (CM0473, Oxoid), 10% MRS medium (DF0881-17-5, Difco), and 1.5% agar (214010, Difco)). Strips for each type of antibiotics, such as Amikacin (92018, Liofilchem srl), Gentamycin (92009, Liofilchem srl), Kanamycin (92034, Liofilchem srl), Streptomycin (92112, Liofilchem srl), Penicillin-G (92102, Liofilchem srl), Oxacillin (92015, Liofilchem srl), Ampicillin (920030, Liofilchem srl), Bacitracin (92019, Liofilchem srl), Rifampicin (92001, Liofilchem srl), Polymyxin B (92004, Liofilchem srl), Chloramphenico I (92075, Liofilchem srl), Vancomycin (92057, Liofilchem srl), and the like, were put on the medium, and the bacteria were grown at 37° C. for 24 hours.
In Table 4, R indicates resistance and represents that the size of an inhibition zone is about 0 mm; IS indicates medium resistance and represents that the size of an inhibition zone is in a range of about 1 mm to about 5 mm; and S indicates […] and represents that the size of an inhibition zone is greater than about 5 mm.

[2] = tested on: croton oil-induced mouse ear edema; assay: Croton oil-induced mouse ear edema test; format: in vivo, ICR mice; conditions: 10 mg/kg BW oral, about 4 hours after 2.5% croton oil
Protocol: To confirm anti-inflammatory effect of the probiotic lactic acid bacteria (Lactobacillus plantarum KC3, KC3) on ear edema, an experiment was performed according to the croton oil-induced mouse ear edema method by applying the method described in the document (Dong Wook Kim, Kun Ho Son, Hyeun Wook Chang, KiHwan Bae and Sam Sik Kang, Arch Pharm Res., 2003, 3, pp 232-236).
To evaluate anti-inflammatory activity of the samples of the Example above, a croton oil-induced mouse ear edema test was carried out, and results thereof were obtained by measuring the ear thickness of the samples as shown in Table 8. […]
About 1 hour after administration, 2.5% croton oil (C0421 available from TCI Company, […]) dissolved in acetone was applied evenly to the inside and outside of the right ear of each mice to induce ear edema. […] Then, the degree of edema in the ears of the mice was measured according to variations in speed by measuring the thickness of both ears using a thickness gauge (Digimatic thickness gauge, 547-301, Mitutoyo, Japan). Here, based on the degree of and the inhibition rate (%) was calculated based on the degree of edema of the mice in the negative control group (0.5% sodium carboxymethyl cellulose (CMC), Sigma-Aldrich 419273), inhibition rates (%) were calculated, and results thereof are shown in Table 8 below.

| Compound | Antibiotic resistance (class) [1] | Antibiotic resistance, size of inhibition zone [1] | Inhibition rate of ear edema (% of control) [2] | Thickness (ear) ([2]; edema control 0.806 ± 0.068) |
| --- | --- | --- | --- | --- |
| NCC[C@H](O)C(=O)N[C@@H]1C[C@H](N)[C@@H](O[C@H]2O[C@H](CN)[C@@H](O)[C@H](O)[C@H]2O)[C@H](O)[C@H]1O[C@H]1O[C@H](CO)[C@@H](O)[C@H](N)[C@H]1O [Amikacin] | IS (IS indicates medium resistance and represents that the size of an inhibition zone is in a range of about 1 mm to about 5 mm) | (1 mm) | – | – |
| CC1(C)S[C@@H]2[C@H](NC(=O)[C@H](N)c3ccccc3)C(=O)N2[C@H]1C(=O)O [Ampicillin] | S (S indicates resistance and represents that the size of an inhibition zone is greater than about 5 mm) | (14 mm) | – | – |
| CC[C@H](C)[C@H](N)C1=N[C@H](C(=O)N[C@@H](CC(C)C)C(=O)N[C@H](CCC(=O)O)C(=O)N[C@H](C(=O)N[C@H]2CCCCNC(=O)[C@H](CC(N)=O)NC(=O)[C@@H](CC(=O)O)NC(=O)[C@H](Cc3cnc[nH]3)NC(=O)[C@@H](Cc3ccccc3)NC(=O)[C@H]([C@@H](C)CC)NC(=O)[C@@H](CCCN)NC2=O)[C@@H](C)CC)CS1 [Bacitracin] ({Ileψ(thiazoline)Cys}-L[dE]IK[dOrn]I[dF]H[dD]N; lactam 4-C) | S (S indicates resistance and represents that the size of an inhibition zone is greater than about 5 mm) | (7 mm) | – | – |
| O=C(N[C@H](CO)[C@H](O)c1ccc([N+](=O)[O-])cc1)C(Cl)Cl [Chloramphenicol] | S (S indicates resistance and represents that the size of an inhibition zone is greater than about 5 mm) | (10 mm) | – | – |
| COc1ccc2c(c1)c(CC(=O)O)c(C)n2C(=O)c1ccc(Cl)cc1 [Indomethacin] | – | – | 25.6 ± 2.2 % of control | 0.684 ± 0.054 |
| NC[C@H]1O[C@H](O[C@H]2[C@H](O)[C@@H](O[C@H]3O[C@H](CO)[C@@H](O)[C@H](N)[C@H]3O)[C@H](N)C[C@@H]2N)[C@H](O)[C@@H](O)[C@@H]1O [Kanamycin] | R (R indicates resistance and represents that the size of an inhibition zone is about 0 mm) | (0 mm) | – | – |
| CCC[C@@H]1C[C@@H](C(=O)N[C@@H]([C@H]2O[C@H](SC)[C@H](O)[C@@H](O)[C@H]2O)[C@@H](C)O)N(C)C1 [Lincomycin] | S (S indicates resistance and represents that the size of an inhibition zone is greater than about 5 mm) | (10 mm) | – | – |
| CO[C@@H]1[C@@H](OC(N)=O)[C@@H](O)[C@H](Oc2ccc3c(O)c(NC(=O)c4ccc(O)c(CC=C(C)C)c4)c(=O)oc3c2C)OC1(C)C [Novabiocin] | S (S indicates resistance and represents that the size of an inhibition zone is greater than about 5 mm) | (7 mm) | – | – |
| Cc1onc(-c2ccccc2)c1C(=O)N[C@@H]1C(=O)N2[C@@H]1SC(C)(C)[C@@H]2C(=O)O [Oxacillin] | IS (IS indicates medium resistance and represents that the size of an inhibition zone is in a range of about 1 mm to about 5 mm) | (2 mm) | – | – |
| CC1(C)S[C@@H]2[C@H](NC(=O)Cc3ccccc3)C(=O)N2[C@H]1C(=O)O [Penicillin-G] | IS (IS indicates medium resistance and represents that the size of an inhibition zone is in a range of about 1 mm to about 5 mm) | (5 mm) | – | – |
| CO[C@H]1/C=C/O[C@@]2(C)Oc3c(C)c(O)c4c(O)c(c(/C=N/N5CCN(C)CC5)c(O)c4c3C2=O)NC(=O)/C(C)=C\C=C\[C@H](C)[C@H](O)[C@@H](C)[C@@H](O)[C@@H](C)[C@H](OC(C)=O)[C@@H]1C [Rifampicin] | S (S indicates resistance and represents that the size of an inhibition zone is greater than about 5 mm) | (7 mm) | – | – |
| [H]/N=C(/N)N[C@H]1[C@H](O)[C@@H](O)[C@H](O[C@@H]2O[C@@H](C)[C@](O)(C=O)[C@H]2O[C@@H]2O[C@@H](CO)[C@H](O)[C@@H](O)[C@@H]2NC)[C@@H](N/C(N)=N\[H])[C@@H]1O [Streptomycin] | R (R indicates resistance and represents that the size of an inhibition zone is about 0 mm) | (0 mm) | – | – |
| CN[C@H](CC(C)C)C(=O)N[C@H]1C(=O)N[C@@H](CC(N)=O)C(=O)N[C@H]2C(=O)N[C@H]3C(=O)N[C@H](C(=O)N[C@H](C(=O)O)c4cc(O)cc(O)c4-c4cc3ccc4O)[C@H](O)c3ccc(c(Cl)c3)Oc3cc2cc(c3O[C@@H]2O[C@H](CO)[C@@H](O)[C@H](O)[C@H]2O[C@H]2C[C@](C)(N)[C@H](O)[C@H](C)O2)Oc2ccc(cc2Cl)[C@H]1O [Vancomycin] | R (R indicates resistance and represents that the size of an inhibition zone is about 0 mm) | (0 mm) | – | – |
| Gentamycin | IS (IS indicates medium resistance and represents that the size of an inhibition zone is in a range of about 1 mm to about 5 mm) | (3 mm) | – | – |
| Neomycin | IS (IS indicates medium resistance and represents that the size of an inhibition zone is in a range of about 1 mm to about 5 mm) | (3 mm) | – | – |
| Polymyxin B | R (R indicates resistance and represents that the size of an inhibition zone is about 0 mm) | (0 mm) | – | – |
